Values of other authors as cited in patent publication US9161933B2, “Solid pharmaceutical composition comprising amlodipine and losartan and process for producing same” (HANMI SCIENCE CO., LTD, priority 2009, dated 2015).

Conditions: after food absorption

CCCCc1nc(Cl)c(CO)n1Cc1ccc(-c2ccccc2-c2nn[nH]n2)cc1 [losartan, 2-butyl-4-chloro-1-[[2′-(1H-tetrazol-5-yl)[1,1′-biphenyl]-4-yl]methyl]-1H-imidazol-5-methanol]
reduction of Cmax of losartan: about 10%
